Assay results: patent publication US20040259244A1, “Methods, compositions, and growth and differentiation factors for insulin-producing cells” (priority 2002, published 2004)
Read-outs that look alike come from different tables or passages of the source. Square brackets hold non-standard residues; d marks the D form. Ends that are not written are not given here. sY = N[C@@H](Cc1ccc(OS(=O)(=O)O)cc1)C(=O)O

System: conversion of stem cells into insulin producing cells
Assay type: cell-based
[1] = statistical analysis of insulin content of supernatants, 3 donors, combinatorial array in alginate

Row | Compound | effect on the conversion of stem cells into insulin producing cells [1] | effect on the conversion of stem cells into insulin producing cells
1 | IGF-1: Insulin-like growth factor-I | potential positive effect | –
2 | TGF alpha: Transforming growth factor alpha | potential negative effect | –
3 | FGF-2: fibroblast growth factor 2 (FGF-basic) | potential negative effect | –
4 | CCK8 sulfated: Cholecystokinin octapeptide, sulfated (D[sY]MGWMDF-NH2; ends and bridges not checked; UniProt P06307 96-103, looked up) | potential positive effect | –
5 | NCCCCN [Putrescine] | potential negative effect | –
6 | Laminin | potential positive effect | –
7 | Exendin 4: a long acting analog of GLP-1 | potential positive effect | –
8 | VIP: Vasoactive Intestinal Peptide (HSDAVFTDNYTRLRKQMAVKKYLNSILN; ends and bridges not checked; UniProt P01282 125-152, looked up) | potential positive effect | –
9 | TGF beta 1: Transforming growth factor beta 1 | potential negative effect | –
10 | Transferrin: a beta globulin in blood plasma capable of combining with ferric ions | potential positive effect | –
11 | Insulin: Insulin as medium supplement | potential positive effect | –
12 | GH: growth hormone | potential negative effect | –
13 | C[S+](C)[O-] [DMSO, dimethyl sulfoxide] | potential positive effect | –
14 | NGF beta: Nerve growth factor | potential positive effect | –
15 | Substance P: neuropeptide, full length (RPKPQQFFGLM; ends and bridges not checked; UniProt P20366 58-68, looked up) | potential positive effect | –
16 | IGF-2: Insulin-like growth factor 2 | potential positive effect | –
17 | EGF: epidermal growth factor (NSDSECPLSHDGYCLHDGVCMYIEALDKYACNCVVGYIGERCQYRDLKWWELR; UniProt P01133 971-1023, looked up) | potential positive effect | –
18 | GRP: Gastrin Releasing Peptide (VPLPAGGGTVLTKMYPRGNHWAVGHLM; ends and bridges not checked; UniProt P07492 24-50, looked up) | potential positive effect | –
19 | vEGF | potential positive effect | –
20 | Leu-Enkephalin: Natural opiate pentapeptide (YGGFL) (Leu-enkephalin; UniProt P01210 230-234, looked up) | potential positive effect | –

Row | Compound | effect on the conversion of stem cells into insulin producing cells [1] | effect on the conversion of stem cells into insulin producing cells
21 | CCK8 amide: Cholecystokinin (CCK8-amide) (DYMGWMDF-NH2; ends and bridges not checked; UniProt P06307 96-103, looked up) | potential negative effect | –
22 | NC(=O)c1cccnc1 [Nictotinamide, Nicotinamide] | potential positive effect | –
23 | CC[C@H](C)[C@@H]1NC(=O)[C@H](CCCNC(=N)N)NC(=O)[C@H](CC(=O)O)NC(=O)[C@H](CCSC)NC(=O)[C@H](CCCNC(=N)N)NC(=O)CNC(=O)CNC(=O)[C@H](Cc2ccccc2)NC(=O)[C@@H](NC(=O)[C@H](CO)NC(=O)[C@H](CO)NC(=O)[C@H](CCCNC(=N)N)NC(=O)[C@H](CCCNC(=N)N)NC(=O)[C@H](CC(C)C)NC(=O)[C@@H](N)CO)CSSC[C@@H](C(=O)N[C@@H](CC(N)=O)C(=O)N[C@@H](CO)C(=O)N[C@@H](Cc2ccccc2)C(=O)N[C@@H](CCCNC(=N)N)C(=O)N[C@@H](Cc2ccc(O)cc2)C(=O)O)NC(=O)CNC(=O)[C@H](CC(C)C)NC(=O)CNC(=O)[C@H](CO)NC(=O)[C@H](CCC(N)=O)NC(=O)[C@H](C)NC(=O)CNC1=O [ANP] | potential negative effect | –
24 | Met-Enkephalin | potential positive effect | –
25 | C[C@]12C[C@H](O)[C@H]3[C@@H](CCC4=CC(=O)CC[C@@]43C)[C@@H]1CC[C@@H]2C(=O)CO [Corticosterone] | potential positive effect | –
26 | CC(=O)[C@H]1CC[C@H]2[C@@H]3CCC4=CC(=O)CC[C@]4(C)[C@H]3CC[C@]12C [Progesterone] | potential negative effect | –
27 | Cholera Toxin B Subunit | – | potential positive effect
28 | Endothelin 1: polypeptide consisting of 21 amino acid residues (CSCSSLMDKECVYFCHLDIIW; ends and bridges not checked; cysteine pairing not given here; UniProt P05305 53-73, looked up) | potential negative effect | –
29 | N[C@@H](Cc1cc(I)c(Oc2ccc(O)c(I)c2)c(I)c1)C(=O)O [T3, Triiodothyronine] | potential negative effect | –
30 | CCCCCC(=O)c1c(O)c(Cl)c(OC)c(Cl)c1O [DIF-1] | potential negative effect | –
31 | FGF-1: FGF acidic | potential positive effect | –
32 | HGF: hepatocyte growth factor | potential negative effect | –
33 | Caerulein | potential positive effect | –
34 | LIF: leukemia inhibitory factor, human | potential negative effect | –
35 | GLP-1: Glucagon like-peptide 1, (7-36) amide, human (HAEGTFTSDVSSYLEGQAAKEFIAWLVKGR-NH2; UniProt P01275 98-127, looked up) | potential negative effect | –
36 | Cc1c(C)c2c(c(C)c1O)CCC(C)(C(=O)O)O2 (stereo not drawn) [Trolox] | potential negative effect | –
37 | CN(C)C=O [DMF, n-n-dimethylformamide] | potential positive effect | –
38 | CCCC(=O)[O-].[Na+] [n Butyric Acid] | potential negative effect | –
39 | CNP: A 22-amino acid peptide that is a member of the natriuretic peptide family (GLSKGCFGLKLDRIGSMSGLGC; ends and bridges not checked; cysteine pairing not given here; UniProt P23582 105-126, looked up) | potential positive effect | –
